The test system of this assay is PANC-1 cells. Description: Nude mice orthotopic pancreatic tumor model. Format: in vivo, Athymic Nude-Foxn1nu mice. The conditions noted are these: after 30 days of treatment, GEM 50 mg/kg, MLT 400 mg/kg, CBD 10 mg/kg.

Description: Species and strain: Athymic Nude-Foxn1nu mice.
PANC-1 cells were thawed and cultured in DMEM (Dulbecco's Modified Eagle Medium) +2% L-glutamine +10% FBS (Fetal Bovine Serum), Penicillin/Streptomycin and maintain the cell culture in 100 mm Petri dish (Sarstedt, Germany).
A period of acclimation (at least 5 days) was allowed to mice before tumor inoculation. Before the inoculum, PANC-1 cells were detached with trypsin, counted with trypan blue and for each inoculum, 1×10^6 cells were suspended in 20 ul of PBS. Mice (n=20) were anesthetized with isoflurane (induction at 4% and maintenance at 2%) and cell solutions (20 μL, 1×10^6 cells) were orthotopically injected into the tail of the pancreas exploiting the echo-guided procedure. The 20 animals inoculated with tumor cells were divided in 4 groups (Table 6) when tumor size reaches a volume of approximately 20-30 mm^3 (tumor size was determined by ultrasound imaging analysis).
The animals were inoculated with 1×10^6 PANC-1 cells with VevoLAZR-X system by using echo-guided injection method. All animals were treated every three days for 30 days starting when tumor reached the volume of approximately 30 mm^3 (around 10-15 days from the inoculum). […]
Tumor volume was analyzed by using Vevo Lab software (Fujifilm Visualsonics).

In the case of `Nc1ccn([C@@H]2O[C@H](CO)[C@@H](O)C2(F)F)c(=O)n1` [GEM, Gemcitabine], where the note is “IP every three days, Vehicle 630,8”, the tumor volumes is on record as 111,1. Further, the “effect on tumor volume” value (IP) is “high effect”.

These data come from patent US20240180872A1, “METHODS AND COMPOUNDS OF CANNABIDIOL, MELATONIN AND AKBA FOR TREATING PANCREATIC CANCER” (priority 2021, published 2024).
